Source: paper PMC4633953, “FR171456 is a specific inhibitor of mammalian NSDHL and yeast Erg26p” (Nature Communications, 2015)
Values joined by “and” are separate entries in the source; they are usually repeats but may differ in a detail not shown here. Equal values may be shown once.

How the values were obtained:
F. solani = assay: Combination with clinical antifungal agents (Loewe synergy, growth by OD530); format: cell-based; settings: >1 is synergistic
S. cerevisiae = assay: Yeast fermentation with FR171456 and metabolic profiling for substrate accumulation; format: cell-based
Protocol: In the fermentation experiment, a single yeast colony was grown in 10 ml YP with galactose (2%) & Raffinose (1%) for 5 h (OD 1.0) at 30 °C. An inoculum (70 μl) from the same culture was used to inoculate 400 ml YP-gal (2%)+Raffinose (1%). This culture was then grown overnight at 30 °C. The OD at this point was 0.7. This culture was used to seed 20-l fermenter maintained at 30 °C. When OD in the fermenter was 0.7, then 1466, nM (IC80) of FR171456 was added to the fermenter. The cell pellets (3.8 g) were harvested after 7 h. Erg26p substrate (1.95 mg) was obtained by lipid extraction with ethylacetate and methanol.
Lipid extracts from yeast cells were prepared as described as above. Ergosterol and 4α-methylzymosterol-4-carboxylic acid were analysed on an UltiMate 3000 RS LC (Thermo Fisher Scientific, Waltham, MA, USA) coupled to a 4000 QTRAP (AB Sciex, Foster City, CA, USA), which was equipped with a ESI-Turbo Spray ion source (AB Sciex). […]
Ion source parameters and compound-dependent instrument parameters were optimized by infusing pure standard solutions of ergosterol and 4α-methylzymosterol-4-carboxylic acid, respectively. […] All mass transitions were monitored for 65 msec per SRM scan with a unit/unit resolution for Q1/Q3. […]

R. oryzae = assay: Combination with clinical antifungal agents (Loewe synergy); format: cell-based; settings: >1 is synergistic
hepatic sterol synthesis = test system: hepatic sterol synthesis; design: method as in PMID 15217190; settings: rats, short term experiments, up to 10 mg kg^−1 ref 14; cited from earlier work
[1] = test system: Aspergillus terreus NF4906; assay: Antifungal MIC; format: cell-based
[2] = test system: Candida tropicalis NF2903; assay: Antifungal MIC; format: cell-based
[3] = test system: Saccharomyces cerevisiae NF3201; assay: Antifungal MIC; format: cell-based
[4] = test system: Cryptococcus neoformans NF3102; assay: Antifungal MIC; format: cell-based
[5] = test system: ergosterol pathway intermediates in C. albicans SC5314; assay: Focused metabolomics: 13C-labelled ergosterol pathway intermediates in C. albicans; format: cell-based; settings: increasing doses
Protocol: For ^13C- labelling studies, the wild type C. albicans strain SC5314 was obtained from ATCC (Manassas, VA) and was cultured at 30 °C in YPD broth (1% yeast extract, 2% peptone, 2% dextrose) or Synthetic Medium (3% glycerol, 0.1% glucose, 65 mM NH4Cl, 1.7 mM NaCl, 7 mM KH2PO4, 1 mM CaCl2, 0.5 mM MgSO4).
Approximately 1.25 × 10^8 C. albicans cells from a saturated YPD culture were inoculated into 100 ml Synthetic Medium (SM) and grown at 30 °C to an OD of 1.0. Cells were washed once in modified SM (25 mM KPO4 pH 7.0, with glucose omitted) and suspended to 5 OD600 units per ml in modified SM.
Labelling reactions were performed in 12-ml glass tubes with PTFE-lined caps (Corning) and containing 1 ml cell suspension (∼6 × 10^7 cells), 10 μl DMSO or 10 μl compound dissolved in DMSO, 12 μl 1M D-Glucose (U^-13C6 glucose), and 10 μl 1 M (1,2^-13C2) sodium acetate (Cambridge Isotope Laboratories, Inc). Before LC-MS analysis, dried lipid extracts were dissolved in 500 μl methanol, vortexed and sonicated for 10 min.
Squalene, ergosterol, lanosterol and zymosterol were quantified using the tandem mass spectrometer API4000 triple quadrupole (AB Sciex) with atmospheric pressure chemical ionization (APCI), interfaced to an Agilent LC.
Cells (∼6 × 10^7) and compounds were preincubated 15 min at 30 °C (without shaking) before the addition of labelled substrates. Labelling was performed at 30 °C with shaking for 4 h. Reactions were stopped by adding 1 ml 30% KOH, 1 ml 100% ethanol, and 0.2 ml 2% pyrogallol. Samples were mixed and then heated at 80 °C for 30 min, then cooled to room temperature. Non-saponifiable lipids were extracted two times in petroleum ether, washed with water, dried under nitrogen gas and stored at −80 °C.
For compound calibration, 2 μM solutions in 0.1% formic acid were directly infused into the mass spectrometer. Ergosterol, lanosterol and zymosterol undergo dehydration and their molecular species are detected as [M+H-H2O]^+ while squalene is detected as [M+H]^+. Supplementary Table 4 lists the multiple reaction monitoring parameters of the sterols and squalene, as well as the ^13C incorporated metabolites. The mass spectrometer source parameters are the following: CUR=40, GS1=60, NC=4.5. TEM=450 CAD=4. A mobile phase of 0.2% formic acid in methanol and isocratic run at 0.4 ml min^−1 was employed to separate the metabolites on a Waters XBridge C18 3.5 μm 2.1 × 50 mm column. The run time was 4.5 min.

Aspergillus favus NF4902 = assay: Antifungal MIC; format: cell-based

## C=C(CCC(C)C1CCC2C1(C)CC(O)C13CC14C(=O)CC(O)C(C)(C(=O)O)C4C(=O)CC23O)C(C)C [FR171456, (1R,2aR,3R,5aR,5bS,7aR,8S,9S,11aS,12aR)-1,5b,9-trihydroxy-2a,8-dimethyl-3-((R)-6-methyl-5-methyleneheptan-2-yl)-7,11-dioxohexadecahydrocyclopenta[a]cyclopropa[e]-phenanthrene-8-carboxylic acid]
F. solani; combination of Amphotericin B and FR171456, text prints R. oryzae, Supplementary Fig. 4 F. solani
  Loewe synergy score: 2.7
F. solani; combination with posaconazole
  Loewe synergy score: < 1
S. cerevisiae; FR171456 1466 nM for 7 h
  Erg26p precursor (4α-methylzymosterol-4-carboxylic acid) level: accumulates
S. cerevisiae; Saccharomyces cerevisiae, yeast in YP-gal (2%)+Raffinose (1%), fermenter 30 °C
  IC80: 1470 nM
R. oryzae; combination with Amphotericin B
  Loewe synergy score: < 1
R. oryzae; combination with posaconazole
  Loewe synergy score: < 1
Hepatic sterol synthesis
  dose giving significant reduction in hepatic sterol synthesis: 0.1 mg/kg
[1]
  MIC: 4 µg/mL and 9 µM
[2]
  MIC: 72 µM and 32 µg/mL
[3]
  MIC: 8 µg/mL and 18 µM
[4]
  MIC: 32 µg/mL and 72 µM
[5]
  effect on 13C-labelled ergosterol: dose-dependent reduction
  effect on 13C-labelled lanosterol: increase
  effect on 13C-labelled zymosterol: dose-dependent reduction
Aspergillus favus NF4902
  MIC: 64 µg/mL and 144 µM
